Experimental data published in patent publication US12428455B2, “Dominant negative CEBPB and CEBPD proteins and methods of use for decreasing viability of neoplastic cells” (The Trustees of Columbia University in the City of New York, priority 2018, dated 2025).
No end group written: not given here.

Key:
[1] = test system: MCF7 cells; experiment: Apoptotic nuclei, propidium iodide flow cytometry, MCF7; type: cell-based; details: 20 μM, 3 days, vs untreated cells
Protocol: MDA-MB-231, MCF7, HCT116 and T98G cancer cell lines were treated for 3 days with 20 μM CP-dn-CEBPB and CP-dn-CEBPD peptides from stock solutions prepared without additives. Cultures were stained with propidium iodide and assessed for proportion of cells with apoptotic nuclei by flow cytometry.

[2] = test system: B16-F10 cells; experiment: B16-F10 subcutaneous tumors; type: in vivo, C56BL/6 mice; details: 20 or 50 mg/kg intraperitoneally
Protocol: B16-F10 cells were subcutaneously implanted in the flanks of C56BL/6 mice. After the tumors were established, the mice were treated intraperitoneally with 20 or 50 mg/kg of CP-dn-CEBPD or vehicle as indicated in the schema shown in FIG. 38A. Animal weight was monitored (FIG. 38B). […] FIG. 38D compares calculated individual and mean tumor volumes for each group of animals on day 12.

[3] = test system: HCT116 cells; experiment: HCT116 subcutaneous tumors; type: in vivo, NCR nude mice; details: 20 mg/kg intraperitoneally
Protocol: HCT116 cells were subcutaneously implanted in the flanks of NCR nude mice. After tumors formed, the animals were treated intraperitoneally with 20 mg/kg of CP-dn-CEBPD or vehicle as indicated in the schema shown FIG. 40A. Animal weight was monitored (FIG. 40). […] FIG. 40D compares calculated individual and mean tumor volumes for vehicle and CP-dn-CEBPD treated animals on day 11.

[4] = test system: A375 xenograft tumors; experiment: TUNEL staining of A375 xenograft tumors; type: in vivo, mice; details: 20 mg/kg, retreated 2 days later, tumors harvested after additional 2 days
Protocol: Subcutaneous A375 xenograft tumors were established in mice. When the tumors reached approximately 300 mm^3, randomly chosen animals were treated with vehicle or 20 mg/kg of CP-dn-CEBPD. The animals were retreated 2 days later and, after an additional 2 days, the animals were sacrificed, and the tumors harvested for histology and TUNEL staining to detect apoptosis. Results are presented in FIG. 42A (vehicle) and FIG. 42B (CP-dn-CEBPD).

[5] = test system: A375 cells; experiment: A375 subcutaneous tumors, 20 mg/kg survival study; type: in vivo, NCR nude mice; details: 20 mg/kg intraperitoneally
Protocol: A375 cells were subcutaneously implanted in the flanks of NCR nude mice. Once tumors had formed, the animals were treated intraperitoneally with 20 mg/kg of CP-dn-CEBPD or vehicle as indicated in the schema shown in FIG. 39A. Animal weight was monitored (FIG. 39B). Tumor sizes were measured and volumes calculated on each day of injection. […] FIG. 39D compares calculated individual and mean tumor volumes for vehicle and CP-dn-CEBPD treated animals on day 28.

[6] = test system: BMF; experiment: Apoptotic nuclei after BMF knockdown siRNA and CP-dn-CEBPD; type: cell-based; details: siRNA 2 days, then 20 μM peptide 2 days; T98G, MCF7, A375 and HCT116 cells
Protocol: T98G, MCF7, A375, and HCT116 cells were treated with one of two BMF knockdown siRNAs or control siRNA for 2 days, then treated with or without 20 μM CP-dn-CEBPD for 2 days. Cultures were assessed for % of apoptotic nuclei (n=6 random fields) (FIG. 36A, T98G; FIG. 36B, MCF7; FIG. 38C, A375; FIG. 36D, HCT116).

[7] = endpoint morbid behavior or tumor >1000 mm^3

Row | Sequence | proportion of cells with apoptotic nuclei [1] | side effects (animal weight monitored) [2] | tumor growth (calculated tumor volumes) ([2]; to day 12-13) | side effects (animal weight monitored) [3] | animal survival [3, 7] | tumor growth (calculated tumor volumes) ([3]; to day 11) | apoptosis of tumor cells (TUNEL staining) [4] | side effects (animal weight monitored) [5] | animal survival [5, 7] | tumor growth (calculated tumor volumes) ([5]; to day 28) | % of apoptotic nuclei with BMF knockdown siRNAs or control siRNA [6]
1 | RQIKIWFQNRRMKWKKLETQHKVLELTAENERLQKKVEQLSRELSTLRNLFKQL [CP-DN-CEBPB] | increased apoptotic cell death |  |  |  |  |  |  |  |  |  | 
2 | RQIKIWFQNRRMKWKKLVELSAENEKLHQRVEQLTRDLAGLRQFFK [CP-DN-CEBPD] | increased apoptotic cell death | no apparent side effects | suppressed tumor growth | no apparent side effects | increased animal survival | suppressed tumor growth | causes apoptosis of tumor cells in vivo | no apparent side effects | increased animal survival | suppressed tumor growth | kills cancer cells by upregulating pro-apoptotic BMF
